In patent publication US20170368082A1, “FORMULATIONS OF BRINCIDOFOVIR” (priority 2016, published 2017):

Assay: Tissue distribution by quantitative whole-body autoradiography (QWBA)
Assay type: in vivo, male Sprague Dawley and Long-Evans rats
Details: for AUCall Ratio (PO/IV) / Cmax Ratio (PO/IV): Group 7 vs Group 4
Experimental: The study utilized 4 groups of male SD rats (albino), and 3 groups of male LE rats (pigmented); a total of 39 rats. All animals were obtained from Hilltop Lab Animals, Inc. (Scottdale, Pa.). […] Rats in Group 5 were administered a single 2-h IV infusion of [^14C]brincidofovir at a target dose of 2 mg/kg. […] Three dosing formulations (one for high dose IV, one for low dose IV, and one for PO dose) were prepared at QPS on the day of dosing. The IV formulation for Groups 1, 2, 3, and 4 contained a vehicle of 10 mM sodium phosphate buffer in 5% dextrose solution at pH 8.0(±0.1).
Each animal, at their respective termination time points, was euthanized for QWBA analysis immediately after blood collection. One rat per time point per Group was euthanized as listed below.
The blood samples were maintained on wet ice (approximately 4° C.) and then centrifuged to obtain plasma within 1 h of the blood collection time. Centrifuge settings were recorded in the study notebook. Duplicate aliquots of plasma (0.050 mL) were analyzed for radioactivity using direct counting by LSC, and residual plasma was stored at approximately −70° C. and was saved for possible future analysis under a separate study protocol. Residual red blood cells were discarded as radioactive waste.
The pinna, distal limbs, hair, and tail were removed from each frozen carcass and each frozen carcass was embedded in an aqueous suspension of approximately 2% (w/v) carboxymethylcellulose and frozen into a block. The blocks were stored at approximately −20° C. prior to sectioning. Each blocked carcass was mounted on the object stage of a cryomicrotome (Leica CM3600 Cryomacrocut, Nussloch, Germany and Vibratome 9800, St. Louis, Mo.) maintained at approximately −20° C. and internal standards (3), which were plasma fortified with [^14C]-glucose at one concentration (approximately 0.05 μCi/mL), were placed into the frozen blocks, prior to sectioning, and were used for section thickness quality control. A number of whole-body sections (approximately 40 μm thick) were taken in the sagittal plane at various levels of interest using a whole-body cryomicrotome set at −20° C. Sagittal sections (20-50 μm thick) of frozen carcasses were exposed to phosphor imaging plates. Regions of images in tissues were converted to concentrations using standards. All of the major tissues, organs, and biological fluids were represented.
Tissue concentration data was determined for the following tissues and/or contents: adipose (brown and white), adrenal gland, bile (in duct), blood (cardiac), bone, bone marrow, brain (cerebrum, cerebellum, medulla), cecum (and contents), large intestine (and contents), epididymis, esophagus, eye (uvea and lens), Harderian gland, heart, kidney (cortex and medulla), liver, lung, lymph node, pancreas, pituitary gland, prostate gland, salivary gland, seminal vesicles, skeletal muscle, skin (pigmented and non-pigmented), small intestine (and contents), stomach (gastric mucosa and contents), spleen, spinal cord, testis, thymus, thyroid, and urinary bladder (and contents).
The imaging plate and sections were placed in light-tight exposure cassettes, in a copper-lined lead safe, for a 4-day exposure at room temperature. […] Quantification was performed by image densitometry using MCD image analysis software (v. 7.0, Interfocus Imaging Ltd) and a standard curve constructed from the integrated response [i.e., Molecular Dynamics Counts per square millimeter (MDC/mm^2)] and the nominal concentrations of the ^14C-calibration standards. The concentrations of radioactivity were expressed as the μg equivalents of [^14C]brincidofovir per gram sample (μg equiv/g). A lower limit of quantification (LLOQ) was applied to the data (See section 6.7.4).
Tissue concentrations that fell below the LLOQ were identified as being below the quantification limit (BQL). Tissue areas that were not visualized on autoradiographic images were identified as no sample (NS) and reported as BQL.

SMILES: CCCCCCCCCCCCCCCCOCCCOP(=O)(O)CO[C@H](CO)Cn1ccc(N)nc1=O [[^14C] brincidofovir]
- Tissue Concentration (168 h) (Skin (non-pigmented), 2 h IV infusion 15 mg/kg, Group 4, LLOQ 0.036): 0.226 μg equiv/g
- Tissue Concentration (168 h) (Skin (non-pigmented), PO 15 mg/kg, Group 7, LLOQ 0.034): BQL
- AUCall (Skin (non-pigmented), PO 15 mg/kg, Group 7): 14.0275 μg equiv · h/g
- AUCall Ratio (PO/IV) (Skin (pigmented), 15 mg/kg): 0.18
- Cmax Ratio (PO/IV) (Skin (pigmented), 15 mg/kg): 0.15
- AUCall (Skin (pigmented), 2 h IV infusion 15 mg/kg, Group 4): 95.5050 μg equiv · h/g
- Tissue Concentration (168 h) (Skin (pigmented), 2 h IV infusion 15 mg/kg, Group 4, LLOQ 0.036): 0.09 μg equiv/g
- Tissue Concentration (168 h) (Skin (pigmented), PO 15 mg/kg, Group 7, LLOQ 0.034): BQL
- AUCall (Skin (pigmented), PO 15 mg/kg, Group 7): 17.0405 μg equiv · h/g
- AUCall Ratio (PO/IV) (Small Intestine, 15 mg/kg): 8.25
- Cmax Ratio (PO/IV) (Small Intestine, 15 mg/kg): 6.45
- AUCall (Small Intestine, 2 h IV infusion 15 mg/kg, Group 4): 1160.650 μg equiv · h/g
- Tissue Concentration (168 h) (Small Intestine, 2 h IV infusion 15 mg/kg, Group 4, LLOQ 0.036): 0.339 μg equiv/g
- Tissue Concentration (168 h) (Small Intestine, PO 15 mg/kg, Group 7, LLOQ 0.034): 5.867 μg equiv/g
- AUCall (Small Intestine, PO 15 mg/kg, Group 7, 15 mg/kg): 9575.18 μg equiv · h/g
- AUCall Ratio (PO/IV) (Spinal Cord, 15 mg/kg): 0.02
- Cmax Ratio (PO/IV) (Spinal Cord, 15 mg/kg): 0.04
- AUCall (Spinal Cord, 2 h IV infusion 15 mg/kg, Group 4): 5.7830 μg equiv · h/g
- Tissue Concentration (168 h) (Spinal Cord, 2 h IV infusion 15 mg/kg, Group 4, LLOQ 0.036): BQL
- Tissue Concentration (168 h) (Spinal Cord, PO 15 mg/kg, Group 7, LLOQ 0.034): BQL
- AUCall (Spinal Cord, PO 15 mg/kg, Group 7): 0.1110 μg equiv · h/g
- AUCall Ratio (PO/IV) (Spleen, 15 mg/kg): 0.27
- Cmax Ratio (PO/IV) (Spleen, 15 mg/kg): 0.18
- AUCall (Spleen, 2 h IV infusion 15 mg/kg, Group 4): 642.3590 μg equiv · h/g
- Tissue Concentration (168 h) (Spleen, 2 h IV infusion 15 mg/kg, Group 4, LLOQ 0.036): 0.892 μg equiv/g
- Tissue Concentration (168 h) (Spleen, PO 15 mg/kg, Group 7, LLOQ 0.034): 0.274 μg equiv/g
- AUCall (Spleen, PO 15 mg/kg, Group 7): 172.2208 μg equiv · h/g
- AUCall Ratio (PO/IV) (Stomach (mucosa), 15 mg/kg): 1.29
- Cmax Ratio (PO/IV) (Stomach (mucosa), 15 mg/kg): 4.75
- AUCall (Stomach (mucosa), 2 h IV infusion 15 mg/kg, Group 4): 70.2310 μg equiv · h/g
- Tissue Concentration (168 h) (Stomach (mucosa), 2 h IV infusion 15 mg/kg, Group 4, LLOQ 0.036): 0.069 μg equiv/g
- Tissue Concentration (168 h) (Stomach (mucosa), PO 15 mg/kg, Group 7, LLOQ 0.034): 0.042 μg equiv/g
- AUCall (Stomach (mucosa), PO 15 mg/kg, Group 7): 90.7575 μg equiv · h/g
- AUCall Ratio (PO/IV) (Testis, 15 mg/kg): 0.39
- Cmax Ratio (PO/IV) (Testis, 15 mg/kg): 0.17
- AUCall (Testis, 2 h IV infusion 15 mg/kg, Group 4): 77.2835 μg equiv · h/g
- Tissue Concentration (168 h) (Testis, 2 h IV infusion 15 mg/kg, Group 4, LLOQ 0.036): 0.098 μg equiv/g
- Tissue Concentration (168 h) (Testis, PO 15 mg/kg, Group 7, LLOQ 0.034): 0.041 μg equiv/g
- AUCall (Testis, PO 15 mg/kg, Group 7): 30.3920 μg equiv · h/g
- AUCall Ratio (PO/IV) (Thymus, 15 mg/kg): 0.13
- Cmax Ratio (PO/IV) (Thymus, 15 mg/kg): 0.11
- AUCall (Thymus, 2 h IV infusion 15 mg/kg, Group 4): 92.4355 μg equiv · h/g
- Tissue Concentration (168 h) (Thymus, 2 h IV infusion 15 mg/kg, Group 4, LLOQ 0.036): 0.1 μg equiv/g
- Tissue Concentration (168 h) (Thymus, PO 15 mg/kg, Group 7, LLOQ 0.034): BQL
- AUCall (Thymus, PO 15 mg/kg, Group 7): 12.0843 μg equiv · h/g
- AUCall Ratio (PO/IV) (Thyroid, 15 mg/kg): 0.13
- Cmax Ratio (PO/IV) (Thyroid, 15 mg/kg): 0.13
- AUCall (Thyroid, 2 h IV infusion 15 mg/kg, Group 4): 238.0230 μg equiv · h/g
- Tissue Concentration (168 h) (Thyroid, 2 h IV infusion 15 mg/kg, Group 4, LLOQ 0.036): 0.459 μg equiv/g
- Tissue Concentration (168 h) (Thyroid, PO 15 mg/kg, Group 7, LLOQ 0.034): 0.038 μg equiv/g
- AUCall (Thyroid, PO 15 mg/kg, Group 7): 31.3395 μg equiv · h/g
- AUCall Ratio (PO/IV) (Urinary Bladder, 15 mg/kg): 0.52
- Cmax Ratio (PO/IV) (Urinary Bladder, 15 mg/kg): 0.16
- AUCall (Urinary Bladder, 2 h IV infusion 15 mg/kg, Group 4): 215.5480 μg equiv · h/g
- Tissue Concentration (168 h) (Urinary Bladder, 2 h IV infusion 15 mg/kg, Group 4, LLOQ 0.036): BQL
- Tissue Concentration (168 h) (Urinary Bladder, PO 15 mg/kg, Group 7, LLOQ 0.034): 0.076 μg equiv/g
- AUCall (Urinary Bladder, PO 15 mg/kg, Group 7): 111.2445 μg equiv · h/g
